The values below come from US7829080B2, “Stabilization method of reduced coenzyme Q10” (Kaneka Corporation, priority 2006, dated 2010).

Data set [1] can be described thus: Plasma total coenzyme Q after 14-day oral administration (Example 3). It is filed as in vivo, Crj:CD (SD) rats. The conditions noted are these: male and female rats, 600 mg/kg oral in corn oil once a day for 14 days, 24 hr after final administration; compared to the reduced coenzyme Q10 administration group. As to the method:
A first group was used as a control group, and corn oil (3 ml/kg) was orally administered once a day for 14 days. […] At 24 hr after the final administration, blood samples were collected to give plasma samples. Using HPLC, the concentration of coenzyme Q in the obtained plasma was measured. The results are shown in the bar graph of FIG. 1.

Data set [2] can be described thus: Oral absorbability test (Example 4). It is filed as in vivo, Crj:CD (SD) rats. The conditions noted are these: male rats, 25 mg/ml soy bean oil solution at 4.0 ml/kg, 2 hr from administration. As to the method: Crj:CD (SD) rats (about 77-week-old, 10 male rats) were prepared. Reduced coenzyme Q10 was orally administered to 5 of them, and a mixture of reduced coenzyme Q10 and reduced coenzyme Q11 (containing 0.1% of reduced coenzyme Q11) was orally administered to the remaining 5 of them, each as a 25 mg/ml soy bean oil solution at a dose of 4.0 ml/kg. At 2 hr from the administration, blood was drawn and centrifuged to give plasma samples. Using HPLC, the concentration of coenzyme Q10 in the obtained plasma was measured. The results are shown in the bar graph of FIG. 2. As is clear from FIG. 2, the concentration of coenzyme Q10 in the plasma was about 3.4 μg/ml resulting from the administration of both reduced coenzyme Q10 and a mixture of reduced coenzyme Q10 and reduced coenzyme Q11.

`COc1c(O)c(C)c(C/C=C(\C)CC/C=C(\C)CC/C=C(\C)CC/C=C(\C)CC/C=C(\C)CC/C=C(\C)CC/C=C(\C)CC/C=C(\C)CCC=C(C)C)c(O)c1OC` [reduced coenzyme Q9]: the “concentration of total coenzyme Q in the plasma” value in data set [1] is “increased”. On to `COc1c(O)c(C)c(C/C=C(\C)CC/C=C(\C)CC/C=C(\C)CC/C=C(\C)CC/C=C(\C)CC/C=C(\C)CC/C=C(\C)CC/C=C(\C)CC/C=C(\C)CCC=C(C)C)c(O)c1OC` [reduced coenzyme Q10], for which the “concentration of coenzyme Q10 in the plasma” value in data set [2] is listed as “about 3.4 μg/ml”.
